Measurements taken from patent US20100298141A1, “SUBSTITUTED PYRIDINE N-OXIDE HERBICIDES” (E. I. DU PONT DE NEMOURS AND COMPANY, priority 2007, published 2010).

Key:
bermudagrass = assay: Test C pre-/postemergence test; format: in vivo, Cynodon dactylon
Summary of the method: (§1)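 Test chemicals were formulated with surfactant in a non-phytotoxic solvent and sprayed both on freshly planted seeds (preemergence) and on 1- to 4-leaf plants of 2–18 cm (postemergence). Flooded-paddy pots received compound directly into 3 cm of standing water, maintained for the test.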

giant foxtail = assay: Test A pre-/postemergence greenhouse test; format: in vivo, Setaria faberi; conditions: for Plant response rating, Foxtail, Giant: 0 to 100 scale where 0 is no effect and 100 is complete control; for Foxtail, Giant plant response rating: 0 to 100 scale
Summary of the method: (§2)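 Visual injury ratings against untreated controls, taken roughly ten days after treatment in greenhouse. Plants were sprayed postemergence at one- to two-leaf stage (2–10 cm tall); at the same time, seeded loam/sand soil received a directed preemergence spray. Formulation: non-phytotoxic solvent mixture with surfactant.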

crabgrass [1] = assay: Test C pre-/postemergence test; format: in vivo, Digitaria sanguinalis
Summary of the method: as §1

barnyardgrass [2] = assay: Test C flooded paddy test; format: in vivo, Echinochloa crus-galli; conditions: Flood
Summary of the method: (§3)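 Flooded 3 cm over soil; compound into paddy water; depth kept constant. Greenhouse 13–15 d.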

morningglory = assay: Test A pre-/postemergence greenhouse test; format: in vivo, Ipomoea spp.; conditions: for Plant response rating, Morningglory: 0 to 100 scale where 0 is no effect and 100 is complete control; for Morningglory plant response rating: 0 to 100 scale
Summary of the method: as §2

Surinam grass = assay: Test C pre-/postemergence test; format: in vivo, Brachiaria decumbens
Summary of the method: as §1

soybean = assay: Test C pre-/postemergence test; format: in vivo, Glycine max
Summary of the method: as §1

Goosegrass = assay: Test C pre-/postemergence test; format: in vivo, Eleusin indica
Summary of the method: as §1

Italian ryegrass = assay: Test C pre-/postemergence test; format: in vivo, Lolium multiflorum
Summary of the method: as §1

lambsquarters = assay: Test C pre-/postemergence test; format: in vivo, Chenopodium album
Summary of the method: as §1

cocklebur = assay: Test C pre-/postemergence test; format: in vivo, Xanthium strumarium
Summary of the method: as §1

crabgrass [3] = assay: Test A pre-/postemergence greenhouse test; format: in vivo, Digitaria sanguinalis; conditions: for Plant response rating, Crabgrass, Large: 0 to 100 scale where 0 is no effect and 100 is complete control; for Crabgrass, Large plant response rating: 0 to 100 scale
Summary of the method: as §2

kochia = assay: Test C pre-/postemergence test; format: in vivo, Kochia scoparia
Summary of the method: as §1

pigweed = assay: Test C pre-/postemergence test; format: in vivo, Amaranthus retroflexus
Summary of the method: as §1

umbrella sedge = assay: Test C flooded paddy test; format: in vivo, Cyperus difformis; conditions: Flood
Summary of the method: as §3

[4] = tested on: common (oilseed) sunflower; assay: Test C pre-/postemergence test; format: in vivo, Helianthus annuus
Summary of the method: as §1

barnyardgrass [5] = assay: Test A pre-/postemergence greenhouse test; format: in vivo, Echinochloa crus-galli; conditions: for Plant response rating, Barnyardgrass: 0 to 100 scale where 0 is no effect and 100 is complete control; for Barnyardgrass plant response rating: 0 to 100 scale
Summary of the method: as §2

[6] = 125 g ai/ha, preemergence, scale 0 (no effect) to 100 (complete control)
[7] = Preemergence, 31 g ai/ha, scale 0 to 100 (0 no effect, 100 complete control)
[8] = preemergence, 250 g ai/ha, scale 0 (no effect) to 100 (complete control)
[9] = Postemergence, 500 g ai/ha, 0 is no effect, 100 is complete control
[10] = Preemergence, 125 g ai/ha, 0 no effect, 100 complete control
[11] = 62 g ai/ha, Preemergence, scale 0 to 100
[12] = 62 g ai/ha, scale 0 to 100 (0 no effect, 100 complete control)
[13] = 250 g ai/ha, scale 0 to 100, 0 no effect, 100 complete control, 13 to 15 days

Cc1cc[n+]([O-])c(S(=O)(=O)Cc2c(C(F)(F)F)nn(C)c2OC(C)C(F)(F)F)c1 (stereo not shown) [Compound 96]
75: Plant response rating, Surinam Grass (Surinam grass; [7]) | Plant response rating, Sedge, Umbrella (umbrella sedge; [13])
85: Plant response rating, Bermudagrass (bermudagrass; [7]) | Crabgrass, Large plant response rating (crabgrass [1]; [11])
20: Morningglory plant response rating (morningglory; [10]) | Soybean plant response rating (soybean; [11]) | Plant response rating, Soybean (soybean; [7])
10: Plant response rating, Morningglory (morningglory; Postemergence, 125 g ai/ha) | Cocklebur plant response rating (cocklebur; [6]) | Plant response rating, Pigweed (pigweed; [7])
80: Foxtail, Giant plant response rating (giant foxtail; [9]) | Plant response rating, Crabgrass, Large (crabgrass [1]; [7]) | Plant response rating, Morningglory (morningglory; Preemergence, 500 g ai/ha) | Surinam Grass plant response rating (Surinam grass; [11]) | Crabgrass, Large plant response rating (crabgrass [3]; [10])
100: Bermudagrass plant response rating (bermudagrass; 62 g ai/ha, Preemergence, scale 0 to 100 (0 no effect, 100 complete control)) | Bermudagrass plant response rating (bermudagrass; [6]) | Bermudagrass plant response rating (bermudagrass; [8]) | Foxtail, Giant plant response rating (giant foxtail; [10]) | Plant response rating, Foxtail, Giant (giant foxtail; Preemergence, 500 g ai/ha) | Surinam Grass plant response rating (Surinam grass; [6]) | Surinam Grass plant response rating (Surinam grass; [8]) | Goosegrass plant response rating (Goosegrass; [11]) | Goosegrass plant response rating (Goosegrass; [6]) | Goosegrass plant response rating (Goosegrass; [8]) | Ryegrass, Italian plant response rating (Italian ryegrass; [6]) | Ryegrass, Italian plant response rating (Italian ryegrass; [8]) | Lambsquarters plant response rating (lambsquarters; [11]) | Lambsquarters plant response rating (lambsquarters; [6]) | Lambsquarters plant response rating (lambsquarters; [8]) | Plant response rating, Crabgrass, Large (crabgrass [3]; Preemergence, 500 g ai/ha) | Kochia plant response rating (kochia; [6]) | Kochia plant response rating (kochia; [8]) | Pigweed plant response rating (pigweed; [8]) | Plant response rating, Barnyardgrass (barnyardgrass [5]; Preemergence, 500 g ai/ha)
40: Soybean plant response rating (soybean; [6]) | Cocklebur plant response rating (cocklebur; [8]) | Plant response rating, Crabgrass, Large (crabgrass [3]; Postemergence, 125 g ai/ha)
95: Crabgrass, Large plant response rating (crabgrass [1]; [6]) | Plant response rating, Goosegrass (Goosegrass; [7])
0: Plant response rating, Barnyardgrass (barnyardgrass [2]; [12]) | Plant response rating, Barnyardgrass (barnyardgrass [2]; [13]) | Cocklebur plant response rating (cocklebur; [11]) | Plant response rating, Cocklebur (cocklebur; [7]) | Plant response rating, Kochia (kochia; [7]) | Plant response rating, Sedge, Umbrella (umbrella sedge; [12]) | Sunflower plant response rating [4, 11] | Sunflower plant response rating [4, 6] | Plant response rating, Sunflower [4, 7]
90: Crabgrass, Large plant response rating (crabgrass [3]; [9]) | Barnyardgrass plant response rating (barnyardgrass [5]; [9]) | Barnyardgrass plant response rating (barnyardgrass [5]; [10])
60: Plant response rating, Ryegrass, Italian (Italian ryegrass; [7]) | Plant response rating, Barnyardgrass (barnyardgrass [5]; Postemergence, 125 g ai/ha)
98: Crabgrass, Large plant response rating (crabgrass [1]; [8]) | Ryegrass, Italian plant response rating (Italian ryegrass; [11])
30: Sunflower plant response rating [4, 8]
50: Plant response rating, Lambsquarters (lambsquarters; [7])
70: Plant response rating, Foxtail, Giant (giant foxtail; Postemergence, 125 g ai/ha) | Morningglory plant response rating (morningglory; [9]) | Soybean plant response rating (soybean; [8]) | Kochia plant response rating (kochia; [11]) | Pigweed plant response rating (pigweed; [11]) | Pigweed plant response rating (pigweed; [6])
